Measurements from patent US20100311821A1, “Synthetic vector” (priority 2009, published 2010).

Tested on: λ-DNA
Experiment: AFM imaging of DNA complexes
Type: physicochemical, lambda phage
Conditions: 50 μg/ml λ-DNA, stoichiometric KWK 64 μM (16 μM PP4, 8 μM PP8), 10 mM sodium cacodylate buffer
Description: Preparation of DNA complexes. […] The mixture solution was vortexed for 30 seconds and allowed to equilibrate at room temperature for a few hours. The final DNA concentration was set at 50 μg/ml.
Characterization of DNA complexes structure by Atomic Force Microscopy. DNA complexes were deposited on freshly cleaved mica and then allowed to air dry. Tapping mode AFM imaging was performed on a Digital Instruments Nanoscope […] scanning probe microscope with a multimode head. Silicon probes (VistaProbes T300) with spring constant 40 N/m, resonant frequency, 300 kHz was used to obtain all images.
Long linear lambda phage DNA, λ-DNA, (double-stranded, 48 kbp, MW=3×10^7 Da, contour length—17 μm) in dilute aqueous solution (100 μg ml^−1 DNA in 10 mM pH=6.5 sodium cacodylate buffer containing 0.5 mM EDTA) was used for packaging studies. […] The final DNA concentration was set at 50 μg ml^−1 throughout the studies in this example. The DNA-KWK, DNA-PP4 and DNA-PP8 complex structures were investigated by atomic force microscope (“AFM”) on mica substrates.

lysine-tryptophan-lysine [KWK]
DNA compaction (AFM): No DNA compaction
